PubChem BioAssay (NCI)
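How tested: cells in 96-well plates exposed to compound for 48 hours at five concentrations. GI50 is the concentration that inhibits growth by half. At the TGI there is no net growth.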

How the values were obtained:
Experiment in all cases: growth of human tumour cells (NCI), 48 h
SR leukemia = tested on: SR leukemia
OVCAR-4 ovarian = tested on: OVCAR-4 ovarian
NCI-H226 lung = tested on: NCI-H226 lung
786-0 renal = tested on: 786-0 renal
SF-295 CNS = tested on: SF-295 CNS
HCT-116 colon = tested on: HCT-116 colon
SF-539 CNS = tested on: SF-539 CNS
UO-31 renal = tested on: UO-31 renal
UACC-257 melanoma = tested on: UACC-257 melanoma
NCI-H460 lung = tested on: NCI-H460 lung

Compound | GI50 (SR leukemia) [µM] | TGI (SR leukemia) [µM] | GI50 (OVCAR-4 ovarian) [µM] | TGI (OVCAR-4 ovarian) [µM] | GI50 (NCI-H226 lung) [µM] | TGI (NCI-H226 lung) [µM] | GI50 (786-0 renal) [µM] | TGI (786-0 renal) [µM] | GI50 (SF-295 CNS) [µM] | TGI (SF-295 CNS) [µM] | GI50 (HCT-116 colon) [µM] | TGI (HCT-116 colon) [µM] | GI50 (SF-539 CNS) [µM] | TGI (SF-539 CNS) [µM] | GI50 (UO-31 renal) [µM] | TGI (UO-31 renal) [µM] | GI50 (UACC-257 melanoma) [µM] | TGI (UACC-257 melanoma) [µM] | GI50 (NCI-H460 lung) [µM] | TGI (NCI-H460 lung) [µM]
COc1ccccc1NC(=O)c1ccc(/C=C/C(=O)c2nccn2C)cc1 | 0.242 | 7 | 0.74 | 5.67 | 0.588 | 1.69 | 0.542 | 1.34 | 0.658 | 1.76 | 0.408 | 0.89 | 0.495 | 1.07 | 0.357 | 0.714 | 0.972 | 10.1 | 0.572 | 1.52
COc1cc2c(c(OC)c1OC)-c1ccc(NCc3ccccc3)c(=O)cc1[C@@H](NC(C)=O)CC2 | 0.436 | > 44.3 | 0.989 | 45.9 | 1.01 | 17.1 | 0.745 | 46.8 | 0.617 | 18.3 | 0.419 | > 100 | 0.309 | 3.51 | 4.99 | 44.9 | 0.671 | 37.5 | 0.369 | 18
CN1CCN(Cc2ccc(NC(=O)c3cncc(C#Cc4cnc(N)c5ccccc45)c3)cc2C(F)(F)F)CC1 | 0.157 | 6.63 | 0.117 | 0.738 | 0.393 | 1.13 | 0.423 | 0.89 | 0.486 | 0.955 | 0.16 | 0.581 | 0.38 | 0.792 | 0.436 | 0.869 | 0.605 | 1.27 | 0.158 | 0.581
Cc1cc(C)nc(NS(=O)(=O)c2ccc(NC(=O)c3cccc4c(=O)c5ccccc5[nH]c34)cc2)n1 | – | > 100 | – | 43.3 | – | 36 | – | 36.8 | – | 43.5 | – | 30.7 | – | 35.4 | – | 45.7 | – | 33.9 | – | 36.1
COc1nc2c(cc1S(=O)(=O)c1ccccc1)CCc1c-2cnn1-c1ccccc1Cl | 5.01 | > 100 | 7.3 | > 100 | 4.91 | > 100 | 7.28 | > 100 | 5.72 | > 100 | 5.31 | > 100 | > 100 | > 100 | 3.13 | > 100 | 21.8 | > 100 | 26.3 | > 100
C#CC(C)(C)Oc1cc(O)c2c(=O)c3ccccc3n(C)c2c1 | – | 35.7 | – | > 100 | – | > 100 | – | > 100 | – | > 100 | – | > 100 | – | 58.1 | – | > 100 | – | > 100 | – | > 100
COc1ccc(CN2CCCC(C(=O)c3ccc(C(F)(F)F)cc3)C2)c(O)c1 (stereo not given) | 18 | 66.5 | 29.2 | > 100 | 35.5 | > 100 | 17.3 | 40.4 | 16.8 | 45.9 | 21.2 | > 100 | 18.8 | 46.1 | 14.4 | 59.6 | 24.2 | 74.4 | 26.7 | > 100
COC(=O)[C@@H](C)C[C@H](Cc1ccccc1)NC(=O)c1nc([C@@H](C[C@H](C(C)C)N(C)C(=O)[C@@H](NC(=O)[C@H]2CCCN2C)C(C)C)OC(C)=O)sc1C | < 0.0025 | > 25 | 0.542 | > 25 | 0.16 | > 25 | < 0.0025 | 24.2 | < 0.0025 | > 25 | < 0.0025 | > 25 | 0.00339 | 0.201 | 0.0154 | > 25 | > 25 | > 25 | < 0.0025 | > 25
CCOc1ccc2nc(NC(=O)/C(CC(=O)CC(C3=C(O)c4ccccc4CC3=O)c3ccccc3)=N\O)sc2c1 (stereo not given) | – | > 100 | – | > 100 | – | > 100 | – | > 100 | – | > 100 | – | > 100 | – | > 100 | – | > 100 | – | > 100 | – | > 100
O=C1Oc2cc3c(c4cccc1c24)OCN(c1ccc(Cl)cc1)C3 | – | 49 | – | 96.6 | – | > 100 | – | 34.5 | – | > 100 | – | 29.3 | – | 23.9 | – | 32.2 | – | > 100 | – | > 100
CCN1CCN(c2nc(NCCNc3ccnc4cc(Cl)ccc34)c3ccccc3n2)CC1 | 0.287 | 0.898 | 1.78 | 4.45 | 1.82 | 4.05 | 1.03 | 2.44 | 1.33 | 2.74 | 1.1 | 6.13 | 1.83 | 3.36 | 1.53 | 3.3 | 2.62 | 4.8 | 1.91 | 5.33
O=C1c2ccccc2C(=O)c2c1ccc1[nH]c(CCl)nc21 | 2.25 | 13.8 | 3.05 | 11.2 | 2.56 | 7.96 | 2.91 | 9.38 | 7.99 | 20.6 | 1.85 | 4.7 | 3.16 | 11.6 | 2.72 | 9.22 | 4.23 | 15.1 | 3.97 | 15.1
S=C1NCCN1C1=Nc2ccccc2CO1 | > 100 | > 100 | > 100 | > 100 | > 100 | > 100 | > 100 | > 100 | > 100 | > 100 | > 100 | > 100 | > 100 | > 100 | > 100 | > 100 | > 100 | > 100 | > 100 | > 100
CN(C)c1ccc(/C=C2\C[N+](C)(C)C/C(=C\c3ccc(N(C)C)cc3)C2=O)cc1 | – | 36.6 | – | > 100 | – | 90.8 | – | 85.3 | – | > 100 | – | 22.5 | – | 49.9 | – | > 100 | – | 32.4 | – | > 59
